Where “and” joins values, the source holds several entries; their conditions need not be identical. Identical values can stand only once.
Key:
[1] = system: pooled human plasma; assay: Prothrombin time (PT) clotting assay, MLA Electra 800 automatic coagulation timer; format: biochemical; details: 1 μM rivaroxaban alone (baseline 12.2 sec)
[2] = cited from earlier work
[3] = system: human platelet poor plasma; assay: Clotting prolongation assay, 96-well plate format (OD405 turbidity change, aPTT reagent); format: biochemical; details: 125 nM betrixaban, no r-Antidote, no FX; FIG. 26
[4] = system: thrombin generation in human plasma; assay: Thrombin generation assay in platelet poor or platelet rich plasma; format: biochemical; details: 250 nM betrixaban, at all rfVIIa concentrations tested (50-200 nM) with tissue factor; FIG. 4
Method: PRP and PPP were prepared by spinning the anticoagulated blood at ˜100× gravity or 1000× gravity for 20 minutes, respectively, at room temperature. 75-100 microliter (uL) plasma was mixed with CaCl2 and Z-Gly-Gly-Arg-aminomethylcoumarin (Z-GGR-AMC, a thrombin fluorogenic substrate). Tissue factor (Innovin, Dade Behring) was added to initiate the generation of thrombin. For a typical experiment, the reaction mixture contained 15 millimolar (mM) Ca^2+, 100 micromolar (μM) Z-GGR-AMC, and 0.1 nanomolar (nM) tissue factor (TF) (Innovin). Thrombin formation was monitored continuously at 37° C. by a fluorometric plate reader (Molecular Devices) measuring the relative fluorescence units (RFU). Inhibitor and antidote, when present, were pre-incubated with plasma for 20 minutes at room temperature before initiation of thrombin generation.
PRP and PPP were prepared by spinning the anticoagulated blood at ˜100× gravity or 1000× gravity for 20 minutes, respectively, at room temperature. […] Tissue factor (Innovin, Dade Behring) and CaCl2 were added to initiate the generation of thrombin. […] Thrombin formation was monitored continuously at 37° C. by a fluorometric plate reader (Molecular Devices) measuring the relative fluorescence units (RFU). […]

[5] = system: pooled human plasma; assay: aPTT clotting assay, MLA Electra 800 automatic coagulation timer; format: biochemical
Method: Two clotting assay formats were used to test the effects of factor Xa inhibitors and the antidote on clotting prolongation. […] In the second assay format, aPTT was measured with a conventional coagulation instrument (MLA Electra 800 automatic coagulation timer).
The effect of 1 antiXa Unit/mL LMWH on aPTT prolongation of plasma and the reversal of inhibitory effect was measured by a MLA Electra 800 Automatic coagulation timer. 100 μL pooled citrate anticoagulated human plasma was mixed with enoxaparin and different concentrations of antidote. Prior to measurement of clotting time, aPTT reagent (Actin FS, Dade Behring) and CaCl2 were added per manufacturer's instructions.

In the case of `O=C(NC[C@H]1CN(c2ccc(N3CCOCC3=O)cc2)C(=O)O1)c1ccc(Cl)s1` [rivaroxaban], the PT [1] is listed as 25 ± 0.4 s, the peak plasma concentrations ([2]; clinically effective doses) is listed as ≤ 318 ng/ml and ≤ 730 nM and the therapeutic concentrations ([2]; reported, Kubitza 2005) is listed as “approximately 600 nM”.

With “[2-({4-[(dimethylamino)iminomethyl]phenyl}carbonylamino)-5-methoxyphenyl]-N-(5-chloro(2-pyridyl))carboxamide [betrixaban]” the “effect on clotting time” value [3] was “doubled the clotting time”, the “inhibition of fXa by betrixaban (thrombin generation)” value [4] was “about 75%” and the “aPTT” value ([5]; 300 nM Betrixaban alone) was 61.8 s. For the same compound, the “aPTT” value ([5]; 400 nM Betrixaban alone (Table 17)) was 66.3 s, the aPTT ([5]; 400 nM betrixaban alone (Example 17, baseline 25.5 sec)) was 51.6 ± 0.4 s and the “extension of aPTT” value ([5]; 400 nM betrixaban, FIG. 13) was “more than two folds”.

With “fIX: human plasma derived blood coagulation factor IX (Haematologic Technologies)” the aPTT ([5]; 258 nM fIX, 400 nM betrixaban) was 43.8 s, the “correction of aPTT” value ([5]; 258 nM fIX, 400 nM betrixaban) was 15% and the “correction of aPTT” value ([5]; 387 nM fIX, 400 nM betrixaban) was 15%. For the same compound, the “effect on aPTT in human plasma” value ([5]; fIX, absence of betrixaban, FIG. 25) was “slightly reduced aPTT”.
